Experimental findings from patent EP0321273A2, “Thioformamide derivatives” (RHONE POULENC RORER LIMITED, priority 1987, dated 1989) are described below.

For test [1], the system named is isolated rat aorta. Kind of test: Test A: activity against contractions induced by low K+ concentrations (20 mM K+) in the isolated rat aorta. The class given is cell-based. To be noted: concentration reducing the contraction induced by 20 mM K⁺ by 90%; rat thoracic aorta strips denuded of endothelium, Krebs solution, cumulative concentrations; read-out: Activity Test A EC₉₀. Here is the method:
(§1) The test methods used were adapted from those described by Winslow et al [Eur.J.Pharmacol., 131, 219-228 (1986)] and Karaki [J.Pharmacol. Methods, 18, 1-21 (1987)] for differentiating vaso-relaxant activity.
Test A : Activity against contractions induced by low K⁺ concentrations in the isolated rat aorta
Thoracic aorta was removed from rats and transverse strips, denuded of endothelium, were suspended in a bath containing Krebs solution. The tension was recorded and a contraction induced by addition of 20 mM K⁺ (potassium ion) to the bathing solution. The test compound was added to the bath as a solution in increasing cumulative concentration. The concentration in the bathing solution of the test compound which reduced the K⁺-induced contraction by 90% was determined and expressed in µM as the effective concentration (EC₉₀), given in Table I.

Test [2] relates to isolated rat aorta. Put plainly: Test B: activity against contractions induced by high K+ concentrations (60 mM K+) in isolated rat aorta. It is filed as cell-based. Conditions: contraction induced by 60 mM K⁺; rat thoracic aorta strips denuded of endothelium, cumulative addition; read-out: concentration in the bath reducing the K⁺-induced contraction by 90%. Here is the method:
as §1
Test B : Activity against contractions induced by high K⁺ concentrations in isolated rat aorta
The test method was as in Test A except that contractions were induced by addition of 60 mM K⁺ to the bathing solution. The cumulative addition of solutions of the test compound was conducted and the concentration in the bath reducing the K⁺-induced contraction by 90% was greater than 30µM for Compounds C, D, E, F, I, J and K, and much greater than 30µM for Compound A. Table I

Where only a bound is given, the exact number is not on record here.

Turning to `CNC(=S)C1(c2ccccc2)CCCCC1=O` (racemic) [Compound A, (±)-N-methyl-2-oxo-1-phenylcyclohexanecarbothioamide], the EC90 in the test on isolated rat aorta [1] came to 29 µM. Moreover, the IC90 in the test on isolated rat aorta [2] was greater than 30 µM.
Consider `CNC(=S)C1(c2ccccc2)CCCCC1=NO` (racemic) [Compound C, (±)-anti-N-methyl-2-hydroxyimino-1-phenylcyclohexanecarbothioamide], for which, in the test with isolated rat aorta [1], the EC90 is greater than 30 µM. Also, the IC90 in the test on isolated rat aorta [2] is greater than 30 µM.
As for `CNC(=S)C1(c2ccccc2)CCCCC1=NOC` (racemic) [Compound D, (±)-anti-N-methyl-2-methoxyimino-1-phenylcyclohexanecarbothioamide], the EC90 in the test with isolated rat aorta [1] was determined as 20 µM. Also, the IC90 with isolated rat aorta [2] was greater than 30 µM.
On the same counts, the results for `CNC(=S)C1(c2cccc([N+](=O)[O-])c2)CCCCC1=O` (racemic) [Compound K, (±)-N-methyl-2-oxo-1-(3-nitrophenyl)cyclohexanecarbothioamide] are 0.7 µM and greater than 30 µM.
In the case of `CNC(=S)C1(c2ccc(Cl)cc2)CCCCC1=O` (racemic) [E, (±)-N-methyl-2-oxo-1-(4-chlorophenyl)cyclohexanecarbothioamide], in the test with isolated rat aorta [1], the EC90 was 12 µM. For the same compound, the IC90 in the test with isolated rat aorta [2] was greater than 30 µM.
On the same counts, the results for `CNC(=S)C1(c2cccc(C(F)(F)F)c2)CCCCC1=O` (racemic) [F, (±)-N-methyl-2-oxo-1-(3-trifluoromethylphenyl)cyclohexanecarbothioamide] are 0.9 µM and greater than 30 µM.
Regarding `CNC(=S)C1(c2ccccc2)CCCCC1=NOCc1ccc(F)cc1` (racemic) [H, (±)-anti-N-methyl-2-(4-fluorobenzyloxyimino)-1-phenylcyclohexanecarbothioamide], the EC90 with isolated rat aorta [1] was determined as 0.6 µM.
`CNC(=S)C1(c2ccc3ccccc3c2)CCCCC1=O` (racemic) [I, (±)-N-methyl-2-oxo-1-(2-naphthyl)cyclohexanecarbothioamide]: in the test on isolated rat aorta [1], the EC90 was 2 µM. For the same compound, the IC90 in the test on isolated rat aorta [2] is greater than 30 µM.
For `CNC(=S)C1(c2ccc(Cl)c(Cl)c2)CCCCC1=O` (racemic) [J, (±)-N-methyl-2-oxo-1-(3,4-dichlorophenyl)cyclohexanecarbothioamide], in that order: 0.4 µM and greater than 30 µM.
